Patent US8178506B2, “Oligomeric compounds and compositions for use in modulation of small non-coding RNAs” (Regulus Therapeutics Inc., priority 2003, dated 2012)
In the oligonucleotide strings, read from the 5' end, every base follows the letter of its sugar. An asterisk marks phosphorothioate; unmarked linkages are phosphodiester. Other units and linkages are bracketed, terminal groups are in braces. A string of capitals states the bases alone. e = 2'-O-(2-methoxyethyl) (MOE); [5mC] = 5-methylcytosine; d = 2'-deoxy (DNA)

System: HeLa cells
Experiment: Cell cycle assay in HeLa cells
Type: cell-based, human
Conditions: for % cells aneuploid / % cells in cell cycle phase G1 / % cells in cell cycle phase G2/M / % cells in cell cycle phase S / % cells in cell cycle phase subG1 / % cells in cell cycle phase: G1 / % cells in cell cycle phase: G2/M / % cells in cell cycle phase: S / % cells in cell cycle phase: aneuploid / % cells in cell cycle phase: subG1 / % cells in cell cycle phase aneuploid: HeLa cells; for % cells in cell cycle phase: G1 / % cells in cell cycle phase: G2/M / % cells in cell cycle phase: S / % cells in cell cycle phase: aneuploid / % cells in cell cycle phase: subG1: 48 hours after treatment, relative to untreated control (UTC=100)
Description: In some embodiments, HeLa cells were plated on collagen-coated 24-well plates at 50,000-60,000 cells per well, and allowed to attach to wells overnight. In some embodiments, HeLa cells were synchronized by double thymidine block (cells were washed three times with PBS, then grown in 10% FBS containing 2 mM thymidine; then 19 hours later, cells were washed three times in PBS, 10% FBS for 9 hours; cells were then incubated in 10% FBS, 2 mM thymidine for 15 hours; then washed three times with PBS, 10% FBS and samples were taken every two hours over a 16 hour period). A portion of each time sample was fixed with ethanol and treated with propidium iodide and subjected to FACs analysis for determination of the percentage of cells in each phase of the cell cycle. […] HeLa cells treated with 10 μM cisplatin or 100 ng/ml nocodazole were used as controls for G1-phase and late G2/M-phases, respectively. From the remaining portion of each of these time samples, total RNA was isolated and used to assess the expression of cell cycle marker mRNAs using the real-time RT-PCR methods and/or used to screen microarrays to assess the expression of miRNAs over the course of the cell cycle. It was observed that several miRNAs are expressed in a cell-cycle-dependent manner. Shown in Table 30 are the mRNA levels of the E2F1 transcription factor and topoisomerase 2A (Top2A), which vary over the course of the cell cycle and can be used for comparison to the experimental groups for the confirmation of cell cycle phase. Data are an average of three trials.
In some embodiments, HeLa cells were also treated with oligomeric compounds targeting miRNAs. […] The medium was removed from the plates. Each well was washed in 250 μl of PBS. […] Control cells received LIPOFECTIN™ only. […] After 24 hours (Table 31) or 48 hours (Table 32), cells were prepared for flow cytometry analysis to generate a cell cycle profile. The cell cycle profile was analyzed with the ModFit program (Verity Software House, Inc., Topsham Me.).
The random-mer ISIS 29848 (SEQ ID NO: 737) was used as a negative control, and ISIS 183891 (SEQ ID NO: 847), targeting kinesin-like 1/Eg5, was included as a positive control. Data are expressed as percentage of cells in each phase relative to the untreated control (UTC); values above 100 are considered to indicate a delay or arrest in that phase of the cell cycle. […] In some cases, the same oligomeric compound was tested in repeated experiments.
In accordance with the present invention, certain oligomeric compounds targeting miRNAs were selected for dose response studies. Using the cell cycle assay described above, the cell cycle profiles of HeLa or A549 cells treated with varying concentrations of oligomeric compounds of the present invention were assessed.
HeLa cells were treated with 25-, 50-, 100- or 150 nM of the oligomeric compounds ISIS
Numbers 327902 (SEQ ID NO: 320) and 328383 (SEQ ID NO: 492), both targeted against mir-192, and ISIS 327905 (SEQ ID NO: 323), targeting mir-205, and ISIS 328403 (SEQ ID NO: 512), targeting mir-106. Cells treated with increasing concentrations of oligomeric compounds were compared to untreated cells, to assess the dose-dependency of the observed delay or arrest. The random-mer ISIS 29848 was used as a negative control. Cells were prepared for flow cytometry 48-hours after oligonucleotide treatment, as described, supra.

[1] = 150 nM oligomeric compound, 24 hours, relative to untreated control (UTC = 100)
[2] = 150 nM, 48 hours, relative to untreated control

Row | Substance | % cells aneuploid [1] [%] | % cells in cell cycle phase G1 [1] [%] | % cells in cell cycle phase G2/M [1] [%] | % cells in cell cycle phase S [1] [%] | % cells in cell cycle phase subG1 [1] [%] | % cells in cell cycle phase: G1 (150 nM oligomeric compound) [%] | % cells in cell cycle phase: G2/M (150 nM oligomeric compound) [%] | % cells in cell cycle phase: S (150 nM oligomeric compound) [%] | % cells in cell cycle phase: aneuploid (150 nM oligomeric compound) [%] | % cells in cell cycle phase: subG1 (150 nM oligomeric compound) [%] | % cells in cell cycle phase G1 [2] [%] | % cells in cell cycle phase G2/M [2] [%] | % cells in cell cycle phase S [2] [%] | % cells in cell cycle phase aneuploid [2] [%] | % cells in cell cycle phase subG1 [2] [%] | phase of the cell cycle in which cells arrest or delay (HeLa, 150 nM, 24 hours) | phase of the cell cycle in which cells arrest or delay (HeLa, 150 nM, 48 hours) | chromosome missegregation (subG1 or aneuploid DNA content) (HeLa, 150 nM, 24-hour and 48-hour timepoints) | phase of the cell cycle in which cells arrest or delay (HeLa, 150 nM, both 24 and 48 hours)
1 | 338750 (antisense TCCGCGGGGGCGGGGAGGCT; all 2'-MOE, all phosphorothioate, methylation of C not given here) [compound 338750] | 166 | 148 | 97 | 76 | 107 | 99 | 103 | 101 | 190 | 201 |  |  |  |  |  |  |  |  | 
2 | 338797 (antisense CTGGGGAGGGGGTTAGCGTC; all 2'-MOE, all phosphorothioate, methylation of C not given here) [compound 338797] | 193 | 101 | 148 | 79 | 197 | 66 | 168 | 124 | 175 | 813 | 104 | 115 | 89 | 125 | 144 |  |  |  | 
3 | AGCCTATCCTGGATTACTTGAA (chemistry not fully specified) [ISIS 345373] |  |  |  |  |  |  |  |  |  |  |  |  |  |  |  | G2/M-phase | S-phase |  | 
4 | 341785 (antisense GGAGTGAAGACACGGAGCCAGA; all 2'-MOE, all phosphorothioate, methylation of C not given here) [compound 341785] | 158 | 152 | 53 | 92 | 125 | 82 | 116 | 126 | 166 | 1148 |  |  |  |  |  |  |  |  | 
5 | ISIS 328759: SEQ ID NO: 668, targeted to mir-216 (eG*eA*eG*eG*eG*dA*dT*dT*dG*dT*dA*dT*dG*dA*dA*e[5mC]*eA*eT*e[5mC]*eT) |  |  |  |  |  |  |  |  |  |  |  |  |  |  |  |  | delay or arrest resulted in the G2/M-phase | induce chromosome missegregation events | G2/M-phase
6 | 338809 (antisense CTGCTCCAGAGCCCGAGTCG; all 2'-MOE, all phosphorothioate, methylation of C not given here) [compound 338809] | 210 | 159 | 69 | 82 | 106 | 86 | 129 | 110 | 157 | 345 |  |  |  |  |  |  |  |  | 
7 | 328707 (eG*e[5mC]*eA*eA*e[5mC]*dA*dG*dG*d[5mC]*d[5mC]*dT*d[5mC]*dA*dA*dT*eA*eT*e[5mC]*eT*eT) [compound 328707] | 166 | 36 | 195 | 93 | 188 | 46 | 213 | 134 | 155 | 1486 | 103 | 122 | 87 | 140 | 125 |  |  |  | 
